From patent EP0225522A1, “Imidazopyridazine alkene carboxamides, process for their preparation, intermediate products and their preparation” (BAYER AG, priority 1985, dated 1987)

Test system: männliche Ratten
Test: Diuretic and saluretic effect in fasted male rats: urine and electrolyte excretion over 6 hours in metabolism cages
Type: in vivo, Ratten (SPF
Conditions: 100 mg/kg p.o. in 10 ml/kg Tylose-Suspension, excretion over 6 Stunden, fasted male Wistar rats; for K^+ / Na^+: flame photometer
Procedure: Die pharmakologische Wirkung der erfindungsgemäßen Verbindungen wurden nach folgender Testmethode ermittelt: Nüchterne männliche Ratten im Gewicht von 150 bis 250 g (SPF, Wistar, je n=4 Paare) werden mit 10 ml/kg p.o. Tylose-Suspension (0,5 X) als Kontrollen bzw. mit 100 mg/kg p.o. Prüfsubstanz in 10 ml/kg p.o. Tylose-Suspension mittels Schlundsonde behandelt. Die Tiere werden in Stoffwechselkäfige gebracht und die Harn- und Elektrolytauscheidung über 6 Stunden bestimmt (Na^4 und K^4 Bestimmung: IL-Flammenphotometer).

SMILES | Harn [mL/kg] | K^+ [µmol/kg] | Na^+ [µmol/kg]
Cc1ccc2nc(-c3ccccc3)c(/C=C/C(=O)N3CCCCC3)n2n1 [Beispiel 14] | 25 | 900 | 2900
CCN(CC)C(=O)/C=C/c1c(-c2ccccc2)nc2ccc(N3CCN(C)CC3)nn12 [Beispiel 35] | 21 | 800 | 3100
CN1CCN(c2ccc3nc(-c4ccccc4)c(/C=C/C(=O)N4CCCCC4)n3n2)CC1 [Beispiel 33] | 26 | 450 | 3400
